Assays:
Abutilon theophrasti = assay: Soil treatment herbicidal test, weed killing rate, Abutilon theophrasti; type: in vivo; details: 672 h, 250 g per hectare, after 4 weeks, read-out: herbicidal activity (weed killing rate) with respect to Abutilon theophrasti
Method: (§1) POA allylphenyl ether (4.1 parts by weight), POE-POP glycol (1 part by weight), POE sorbitan laurate (0.8 parts by weight), glycerin (2.6 parts by weight), dimethylformamide (65.9 parts by weight), N-methylpyrrolidone (5.1 parts by weight), cyclohexanone (15.4 parts by weight), and aromatic hydrocarbons (5.1 parts by weight) were mixed and dissolved to prepare an emulsion. The compound of the present invention (4 mg) was dissolved in this emulsion (100 μL) to prepare a test emulsion. POA means “polyoxyalkylene”, POE means “polyoxyethylene”, and POP means “polyoxypropylene”.
(§2) A 70 cm^2 pot was filled with soil, and seeds of Digitaria ciliaris, Setaria faberi, Abutilon theophrasti and Amaranthus blitum were sown into the surface layer which was covered lightly with soil. The next day, the above test emulsion was diluted so as to achieve a predetermined amount of active ingredient and sprayed on the soil surface with a small sprayer at a spray water volume of 2,860 L per hectare.
(§3) After 4 weeks, the above ground weights of weeds in the untreated and treated areas were measured for each weed, and the weed killing rate was calculated by the following calculation formula.
(§4) Weed killing rate (%)=[(above ground weight of weeds in untreated area)−(above ground weight of weeds in treated area)/(above ground weight of weeds in untreated area)]×100

Amaranthus blitum = assay: Soil treatment herbicidal test, weed killing rate, Amaranthus blitum; type: in vivo; details: 672 h, 250 g per hectare, after 4 weeks, read-out: herbicidal activity (weed killing rate) with respect to Amaranthus blitum
Method: as §1, §2, §3, §4

Row | Structure (SMILES) | pest or weed control at 250 g/ha (Abutilon theophrasti) [%] | pest or weed control at 250 g/ha (Amaranthus blitum) [%] | melting point [°C]
1 | COC12OC1(c1cnc(C(F)(F)F)cc1S(C)(=O)=O)C=NN(C)C2=O (centres unmarked) [Compound A-8] | ≥ 80 | ≥ 80 | 
2 | COC12OC1(c1nn(C)c(=O)n(-c3ccc(F)cc3)c1=O)C=NN(C)C2=O (centres unmarked) [Compound A-10] |  |  | 180 to 182
3 | COC12OC1(c1ncc(C(F)(F)F)cc1S(C)(=O)=O)C=NN(C)C2=O (centres unmarked) [Compound A-6] | ≥ 80 | ≥ 80 | 
4 | COC12OC1(c1nn(C)c(=O)c(C)c1Cl)C=NN(C)C2=O (centres unmarked) [Compound A-23] | ≥ 80 |  | 153 to 155
5 | COC12OC1(c1ccc(C(F)(F)F)n(C)c1=O)C=NN(C)C2=O (centres unmarked) [Compound A-11] |  |  | 128 to 130
6 | COC12OC1(c1cn(C)c(=O)n(-c3ccc(F)cc3)c1=O)C=NN(C)C2=O (centres unmarked) [Compound A-17] |  |  | 191 to 194
7 | COCCOCc1nc(C(F)(F)F)ccc1C12C=NN(C)C(=O)C1(OC)O2 (centres unmarked) [Compound A-5] | ≥ 80 | ≥ 80 | 
8 | COC12OC1(c1ccc(C(F)(F)F)c3ncccc13)C=NN(C)C2=O (centres unmarked) [Compound A-24] | ≥ 80 | ≥ 80 | 171 to 172
9 | COC12OC1(c1cc(C(F)(F)F)nn1CS(C)(=O)=O)C=NN(C)C2=O (centres unmarked) [Compound A-25] | ≥ 80 | ≥ 80 | 
10 | COC12OC1(c1ccc(C(F)(F)F)nc1S(C)(=O)=O)C=NN(C)C2=O (centres unmarked) [Compound A-1] | ≥ 80 | ≥ 80 | 
11 | COC12OC1(c1cc3ccncc3n(-c3ccc(F)cc3)c1=O)C=NN(C)C2=O (centres unmarked) [Compound A-18] |  |  | 175 to 179
12 | COC12OC1(c1ncc(Cl)cc1S(C)(=O)=O)C=NN(C)C2=O (centres unmarked) [Compound A-2] | ≥ 80 |  | 
13 | COC12OC1(c1cc3cccnc3nc1C(F)(F)F)C=NN(C)C2=O (centres unmarked) [Compound A-7] | ≥ 80 | ≥ 80 | 203 to 210
14 | COC12OC1(c1ccc(C(F)(F)F)nc1S(=O)(=O)N1CCOCC1)C=NN(C)C2=O (centres unmarked) [Compound A-4] | ≥ 80 | ≥ 80 | 
15 | COC12OC1(c1cc3cccnc3c(Cl)c1C(F)(F)F)C=NN(C)C2=O (centres unmarked) [Compound A-9] |  |  | 238 to 239
